Where two headings read alike, the source gives them in different places.
Legend:
[1] = in 1.0 M H2SO4; cited from earlier work
[2] = Cyclic voltammetry scan rate study: diffusion coefficient (Randles-Sevcik) and electron transfer rate constant (Nicholson); format: physicochemical
Description: To further verify the correlation between the reaction rate of the catholyte/anolyte pair with the performance and stability of the RFBs, the kinetic parameters, diffusion coefficient (D), and electron transfer rate constant (k0), were quantified.
Electrochemical kinetics studies were conducted by CV measurements and Nicholson analysis. […] The Randles-Sevcik equation, described in Elgrishi et al, A Practical Beginner's Guide to Cyclic Voltammetry. Journal of Chemical Education 2018, 95 (2), 197-206, was used to calculate the diffusion coefficient (D in cm^2 s^−1). A linear fit (ip=slope x v½) yields the slope of the cathodic and anodic peaks from which the D was obtained.
(§1) The electron transfer rate constant (k0) of K4[Fe(CN)6]/TRYP-SO3 redox couple was estimated by using the Nicholson method using the D values previously obtained, as described in Nicholson, R. S., Theory and Application of Cyclic Voltammetry for Measurement of Electrode Reaction Kinetics. Analytical Chemistry 1965, 37 (11), 1351-1355.
as §1, with “BQDS/TRYP-SO3” for “K4[Fe(CN)6]/TRYP-SO3”, “couple and TRYP-NH2” for “couple”
First, a solution of 1.0 mM of K4[Fe(CN)6] with 1.0 M of KCl in 10 mL of Milli-Q water was used as catholyte. Second, the catholyte was prepared by dissolving 1.0 mM of BQDS into 10 mL of 1.0 M KCl solution. All the solutions were degassed with nitrogen for 10 min prior to analysis. An atmosphere of nitrogen was maintained during the voltammetric experiments, and the samples were run at a scan rate of 10-100 mV s^−1 range. All the CV experiments were carried out at T=293 K.

[3] = acidic medium, reported studies; cited from earlier work
[4] = Cyclic voltammetry: oxidation/reduction potentials vs. Ag/AgCl; format: physicochemical
From the text: Klimovich, A. A., Popov, A. M., Krivoshapko, O. N., Shtoda, Y. P. & Tsybulsky, A. V. A comparative assessment of the effects of alkaloid tryptanthrin, rosmarinic acid, and doxorubicin on the redox status of tumor and immune cells. Biophysics 62, 588-594 (2017) and in Jahng, Y. Progress in the studies on tryptanthrin, an alkaloid of history. Arch. Pharm. Res. 36, 517-535 (2013)), the electrochemical behavior of the compounds was initially performed by measuring cyclic voltammetry (CV) of TRYP at different pH values. Cyclic voltammograms (CVs) are presented in FIG. 3 and the relevant electrochemical data including the oxidation (Epa) and reduction (Epc) potentials are summarized in table 1.
Cyclic voltammetry (CV) experiments were carried out using an Autolab potentiostat/galvanostat PGSTAT204 running with NOVA 2.1 software and a three-electrode system in a one-compartment electrochemical cell of capacity 10 mL. A glassy carbon electrode (GCE) (d=3 mm) was the working electrode, glassy carbon (GC) (d=1.6 mm) wires the counter electrode and Ag/AgCl (3.0 M KCl) the reference electrode. The GCE was polished with appropriate polishing pads using first aluminium oxide with particle size 0.3 μm and then aluminium oxide particle with size 0.075 μm (polish in a […] motion) before each electrochemical experiment. After polishing, the electrode was rinsed thoroughly with Milli-Q water and the electrode was sonicate in a container with Milli-Q water and ethanol (50:50 v/v) for 5 minutes. Following this mechanical treatment, the GCE was placed in buffer supporting electrolyte and differential pulse voltammograms were recorded until a steady state baseline voltammogram was obtained.
Depending on the pH experiments different electrolytes were used, for pH=0 (1.0 M H2SO4) solution, for pH=7 (1.0 M KCl) solution and pH =13 (1.0 M NaOH) solution. Potassium ferricyanide ([…]) (1.0 mM solution) with 1.0 M of the proper electrolyte in 10 mL of Milli-Q water was used as standard and also degassed with nitrogen for 10 minutes prior to analysis. Lastly, to measure the OCV for BQDS, 1.0 mM was dissolved into 1.0 M KCl solution. An atmosphere of nitrogen was maintained during the voltammetric experiments, and the samples were run at a scan rate of 50 mV s^−1.

[5] = Solubility in supporting electrolyte / water; format: physicochemical; details: 1.0 M KCl solution, saline or isotonic; in 1.0 M KCl
[6] = 1.0 mM in 1.0 M KCl, Nicholson method, T = 293 K
[7] = neutral pH, 1.0 mM in 1.0 M KCl

| SMILES | Solubility in sulfuric acid [1] | Diffusion coefficient (D) ([2]; 1.0 mM in 1.0 M KCl, 10-100 mV s^−1, T = 293 K) | Electron transfer rate constant (k0) [2, 6] | Electrode potential [3] | Electrode potential in KCl ([4]; in KCl, neutral pH) | Redox potential vs. Ag/AgCl [4, 7] | solubility [5] | Diffusion coefficient (D) [2] | Electron transfer rate constant (k0) [2] | Redox potential vs. Ag/AgCl [4] | Oxidation potential Epa^1 (first peak) ([4]; pH 13) | Oxidation potential Epa^2 (second peak) ([4]; pH 13) | Oxidation potential Epa^3 (third peak) ([4]; pH 13) | Reduction potential Epc^1 (first peak) ([4]; pH 13) | Reduction potential Epc^2 (second peak) ([4]; pH 13) | Reduction potential Epc^3 (third peak) ([4]; pH 13) |
| --- | --- | --- | --- | --- | --- | --- | --- | --- | --- | --- | --- | --- | --- | --- | --- | --- |
| O.O=S(=O)([O-])c1cc(O)c(O)c(S(=O)(=O)[O-])c1.[Na+].[Na+] [BQDS, 4,5-dihydroxy-1,3-benzenedisulfonic acid disodium salt monohydrate, reference compound] | 650 mM | 5.38e-07 cm/s | 0.000271 cm/s | 0.76 V | 0.94 V | 0.48 V | 1280 mM | – | – | – | – | – | – | – | – | – |
| O=C1c2cc(S(=O)(=O)O)ccc2-n2c1nc1ccccc1c2=O [TRYP-SO3H, 6,12-dioxo-6,12-dihydroindolo[2,1-b]cquinazoline-8-sulfonic acid] | – | – | – | – | – | – | – | 6.98e-08 cm/s | 0.000362 cm/s | −0.46 V | Epa^1 = 0.225 V | Epa^2 = 0.738 V | Epa^3 = 1.178 V | Epc^1 = −0.325 V | Epc^2 = −0.802 V | Epc^3 = −0.930 V |
| Nc1ccc2nc3n(c(=O)c2c1)-c1ccccc1C3=O [TRYP-NH2, 2-aminoindolo[2,1-b]quinazoline-6,12-dione] | – | – | 0.264 cm/s | – | – | −0.45 V | – | – | – | – | – | – | – | – | – | – |

Source: patent US20230279011A1, “WATER-SOLUBLE TRYPTHANTRIN DERIVATIVES FOR REDOX FLOW BATTERIES” (UNIVERSIDADE DE COIMBRA, priority 2020, published 2023)
